In US20230355597A1, “COMPOUNDS, COMPOSITIONS, AND METHODS FOR THE TREATMENT AND PREVENTION OF AVIAN PATHOGENIC E. COLI (APEC)” (OHIO STATE INNOVATION FOUNDATION, priority 2018, published 2023):
≈ marks a conversion by molar mass, not a printed value. Marks after values point to notes of the source that are not given here.

How the values were obtained:
APEC O1-63 = format: cell-based, avian pathogenic Escherichia coli (APEC); conditions: APEC O1-63, M63 media; MIC/MBC
APEC O109 = format: cell-based, avian pathogenic Escherichia coli (APEC); conditions: APEC O109, M63 media; MIC/MBC
APEC O78-53 = format: cell-based, avian pathogenic Escherichia coli (APEC); conditions: APEC O78-53, M63 media; MIC/MBC
[1] = test system: intracellular APEC O78 in THP-1 cells; assay: Intracellular survival assay (cidal SMs); conditions: O78, THP-1, 6 h treatment; superscript = multiple of MIC
[2] = test system: intracellular APEC O1 in HD11 cells; assay: Intracellular survival assay (cidal SMs); conditions: O1, HD11, 6 h treatment; superscript = multiple of MIC
APEC O18 = format: cell-based, avian pathogenic Escherichia coli (APEC); conditions: APEC O18, M63 media; MIC/MBC
[3] = test system: intracellular APEC O78 in HD11 cells; assay: Intracellular survival assay (cidal SMs); conditions: O78, HD11, 6 h treatment; superscript = multiple of MIC
APEC O35 = format: cell-based, avian pathogenic Escherichia coli (APEC); conditions: APEC O35, M63 media; MIC/MBC
APEC O78 [4] = format: cell-based, avian pathogenic Escherichia coli (APEC); conditions: APEC O78, M63 media; for MIC: MIC/MBC; for MBC: cell prints MIC/MBC
APEC O115 = format: cell-based, avian pathogenic Escherichia coli (APEC); conditions: APEC O115, M63 media; MIC/MBC
APEC O1 = format: cell-based, avian pathogenic Escherichia coli (APEC); conditions: APEC O1, M63 media; MIC/MBC
[5] = test system: biofilm embedded APEC O78; assay: MBEC High-throughput assay; format: cell-based, avian pathogenic Escherichia coli (APEC); conditions: biofilm embedded APEC O78; superscript = multiple of MIC (footnote)
Procedure: Effect against biofilm embedded APEC. The effect of cidal SMs against biofilm embedded APEC was determined using MBEC High-throughput (HTP) assay (Innovotech Inc., AB, Canada). Briefly, 150 µL of 0.05 OD600 adjusted APEC O78 culture was aliquoted into each well of the MBEC device containing polystyrene pegs and incubated at 37° C. for 36 h in LB media under stationary condition. […] The plate was incubated in the dark for 18 h at 37° C. with rotation at 110 rpm. The DMSO (1%) and M63 media were used as positive and negative controls, respectively. Following incubation, MIC of SMs in challenged plate was recorded. The SMs exposed pegs were then transferred to a new 96-well plate containing PBS and sonicated for 30 mins (Aquasonic ultrasonic cleaner, VWR) to disrupt the biofilm. […] Biofilm embedded APEC bacteria were enumerated and minimum biofilm eradication concentration (MBEC) of […] were determined. Two independent experiments were conducted.

APEC O78 [6] = assay: Loss of 260/280 nm absorbing materials assay; format: cell-based, avian pathogenic Escherichia coli (APEC); conditions: 2X MBC, 1 h, *P<0.05 vs DMSO; for Absorbance 260: 260 nm absorbing material in supernatant; for Absorbance 280: 280 nm absorbing material in supernatant
Rif^r APEC O78 = assay: In vivo efficacy of growth inhibitors in APEC infected broiler chickens; conditions: for reduction of average APEC load in internal organs: average of liver, lung and kidney; for reduction of average APEC load in internal organs / reduction of APEC load, Heart / reduction of APEC load, Kidney / reduction of APEC load, Liver / reduction of APEC load, Lung: vs untreated control; for reduction of APEC induced mortality: oral gavage twice a day, 5 days, untreated mortality (58.34%) normalized to 100%; for reduction of APEC lesions severity (%), Air-sacs (airsacculitis) / reduction of APEC lesions severity (%), Heart (pericarditis) / reduction of APEC lesions severity (%), Liver (perihepatitis) / reduction of APEC lesions severity (%), Lung (lung congestion): untreated control = 100%; for Body weight gain (BWG): weight of live chickens before necropsy minus weight before treatment
[7] = test system: intracellular APEC O78, O2, and O1 in infected Caco-2, HD11, and THP1 cells; assay: Intracellular survival assay (cidal SMs), summary over serotypes and cells; conditions: overall ranking
[8] = test system: intracellular APEC O78 in Caco-2 cells; assay: Intracellular survival assay (cidal SMs); conditions: O78, Caco-2, 6 h treatment; superscript = multiple of MIC
[9] = test system: intracellular APEC O2 in HD11 cells; assay: Intracellular survival assay (cidal SMs); conditions: O2, HD11, 6 h treatment; superscript = multiple of MIC
[10] = test system: intracellular APEC O1 in Caco-2 cells; assay: Intracellular survival assay (cidal SMs); conditions: O1, Caco-2, 6 h treatment; superscript = multiple of MIC
APEC O2 = format: cell-based, avian pathogenic Escherichia coli (APEC); conditions: APEC O2, M63 media; MIC/MBC
APEC O8 = format: cell-based, avian pathogenic Escherichia coli (APEC); conditions: APEC O8, M63 media; MIC/MBC
[11] = test system: intracellular APEC O1 in THP-1 cells; assay: Intracellular survival assay (cidal SMs); conditions: O1, THP-1, 6 h treatment; superscript = multiple of MIC
APEC O78 [12] = assay: Confocal microscopy bacterial cytological profiling; format: cell-based, avian pathogenic Escherichia coli (APEC); conditions: 2X MBC
Procedure: Confocal and scanning electron microscopy. Confocal microscopy was used for bacterial cytological profiling (BCP) to identify the cellular pathways targeted by SMs as described previously. […] After incubation, treated cultures were centrifuged, washed, and resuspended in 100 μL PBS. […] Cultures were then centrifuged, washed, and resuspended in PBS to 1⁄10th volume of the original cultures.

APEC O2-211 = format: cell-based, avian pathogenic Escherichia coli (APEC); conditions: APEC O2-211, M63 media; MIC/MBC
[13] = test system: intracellular APEC O2 in Caco-2 cells; assay: Intracellular survival assay (cidal SMs); conditions: O2, Caco-2, 6 h treatment; superscript = multiple of MIC
APEC O15 = format: cell-based, avian pathogenic Escherichia coli (APEC); conditions: APEC O15, M63 media; MIC/MBC
[14] = test system: intracellular APEC O2 in THP-1 cells; assay: Intracellular survival assay (cidal SMs); conditions: O2, THP-1, 6 h treatment; superscript = multiple of MIC

Compound: COc1ccc(CNCc2cccc(C(F)(F)F)c2)cc1OCC(O)CN1CCCC1 (stereo not shown) [SM7]
- MBC (APEC O1-63): 100 µM (≈ 43.8 µg/mL)
- MIC (APEC O1-63): 50 µM (≈ 21.9 µg/mL)
- MBC (APEC O109): 100 µM (≈ 43.8 µg/mL)
- MIC (APEC O109): 100 µM (≈ 43.8 µg/mL)
- MBC (APEC O78-53): 50 µM (≈ 21.9 µg/mL)
- MIC (APEC O78-53): 50 µM (≈ 21.9 µg/mL)
- SMs intracellular APEC clearance concentration [1]: 50^b µM
- SMs intracellular APEC clearance concentration [2]: 100^c µM
- MBC (APEC O18): 100 µM (≈ 43.8 µg/mL)
- MIC (APEC O18): 50 µM (≈ 21.9 µg/mL)
- SMs intracellular APEC clearance concentration [3]: 50^b µM
- MBC (APEC O35): 50 µM (≈ 21.9 µg/mL)
- MIC (APEC O35): 25 µM (≈ 11 µg/mL)
- MIC (APEC O78 [4]): 25 µM (≈ 11 µg/mL)
- MBC (APEC O78 [4]): 50 µM (≈ 21.9 µg/mL)
- MBC (APEC O115): 100 µM (≈ 43.8 µg/mL)
- MIC (APEC O115): 100 µM (≈ 43.8 µg/mL)
- MBC (APEC O1): 100 µM (≈ 43.8 µg/mL)
- MIC (APEC O1): 50 µM (≈ 21.9 µg/mL)
- MBEC [5]: 50^b µM
- Absorbance 260 (APEC O78 [6]): 3.91*
- Absorbance 280 (APEC O78 [6]): 2.70*
- reduction of average APEC load in internal organs (Rif^r APEC O78; heart): 2.6 logs
- cumulative lesions score (Rif^r APEC O78; liver, heart, lung and air-sacs, untreated 6.2): 2.4
- reduction of APEC induced mortality (Rif^r APEC O78): 71.42%
- reduction of APEC lesions severity (%), Air-sacs (airsacculitis) (Rif^r APEC O78): 52.9%
- reduction of APEC lesions severity (%), Heart (pericarditis) (Rif^r APEC O78): 60%
- reduction of APEC lesions severity (%), Liver (perihepatitis) (Rif^r APEC O78): 60%
- reduction of APEC lesions severity (%), Lung (lung congestion) (Rif^r APEC O78): 83.3%
- effect on BWG of chickens (Rif^r APEC O78; vs non-treated and non-infected chickens): indistinguishable BWG
- reduction of APEC load, Heart (Rif^r APEC O78): 2.3 log CFU/g of tissues
- reduction of APEC load, Kidney (Rif^r APEC O78): 3.2 log CFU/g of tissues
- reduction of APEC load, Liver (Rif^r APEC O78): 2.5 log CFU/g of tissues
- reduction of APEC load, Lung (Rif^r APEC O78): 2.4 log CFU/g of tissues
- Body weight gain (BWG) (Rif^r APEC O78): 261.30±20.43
- effectiveness in clearing intracellular APEC serotypes in all tested cells [7]: most effective
- SMs intracellular APEC clearance concentration [8]: 100^c µM
- SMs intracellular APEC clearance concentration [9]: 100^c µM
- SMs intracellular APEC clearance concentration [10]: 100^c µM
- MBC (APEC O2): 50 µM (≈ 21.9 µg/mL)
- MIC (APEC O2): 25 µM (≈ 11 µg/mL)
- MBC (APEC O8): 200 µM (≈ 87.7 µg/mL)
- MIC (APEC O8): 100 µM (≈ 43.8 µg/mL)
- SMs intracellular APEC clearance concentration [11]: >100 µM
- cytological profile (confocal, FM4-64 / SYTO-9) (APEC O78 [12]): membrane pore formers
- MBC (APEC O2-211): 50 µM (≈ 21.9 µg/mL)
- MIC (APEC O2-211): 50 µM (≈ 21.9 µg/mL)
- SMs intracellular APEC clearance concentration [13]: 100^c µM
- MBC (APEC O15): 50 µM (≈ 21.9 µg/mL)
- MIC (APEC O15): 50 µM (≈ 21.9 µg/mL)
- SMs intracellular APEC clearance concentration [14]: 25^a µM

Compound: CCN1C(=Cc2ccc3ccccc3[n+]2CC)C=Cc2ccccc21.[Cl-] [SM9]
- MBC (APEC O1-63): 100 µM
- MIC (APEC O1-63): 50 µM
- MBC (APEC O109): 50 µM
- MIC (APEC O109): 25 µM
- MBC (APEC O78-53): 25 µM
- MIC (APEC O78-53): 25 µM
- SMs intracellular APEC clearance concentration [1]: 50^b µM
- SMs intracellular APEC clearance concentration [2]: 100^c µM
- MBC (APEC O18): 100 µM
- MIC (APEC O18): 25 µM
- SMs intracellular APEC clearance concentration [3]: 100^c µM
- MBC (APEC O35): 50 µM
- MIC (APEC O35): 25 µM
- MIC (APEC O78 [4]): 25 µM
- MBC (APEC O78 [4]): 50 µM
- MBC (APEC O115): 50 µM
- MIC (APEC O115): 25 µM
- MBC (APEC O1): 50 µM
- MIC (APEC O1): 25 µM
- MBEC [5]: 50^b µM
- Absorbance 260 (APEC O78 [6]): 3.99*
- Absorbance 280 (APEC O78 [6]): 2.78*
- reduction of average APEC load in internal organs (Rif^r APEC O78; heart): either exacerbated or did not reduce
- reduction of APEC induced mortality (Rif^r APEC O78): 42.86%
- reduction of APEC lesions severity (%), Air-sacs (airsacculitis) (Rif^r APEC O78): -88.2%
- reduction of APEC lesions severity (%), Heart (pericarditis) (Rif^r APEC O78): -60%
- reduction of APEC lesions severity (%), Liver (perihepatitis) (Rif^r APEC O78): -50%
- reduction of APEC lesions severity (%), Lung (lung congestion) (Rif^r APEC O78): -16.7%
- reduction of APEC load, Heart (Rif^r APEC O78): -0.5 log CFU/g of tissues
- reduction of APEC load, Kidney (Rif^r APEC O78): -0.2 log CFU/g of tissues
- reduction of APEC load, Liver (Rif^r APEC O78): -0.1 log CFU/g of tissues
- reduction of APEC load, Lung (Rif^r APEC O78): -0.9 log CFU/g of tissues
- Body weight gain (BWG) (Rif^r APEC O78): 214.93±31.88
- effectiveness in clearing intracellular APEC serotypes in all tested cells [7]: most effective
- SMs intracellular APEC clearance concentration [8]: 50^b µM
- SMs intracellular APEC clearance concentration [9]: 100^c µM
- SMs intracellular APEC clearance concentration [10]: 100^c µM
- MBC (APEC O2): 50 µM
- MIC (APEC O2): 25 µM
- MBC (APEC O8): 50 µM
- MIC (APEC O8): 25 µM
- SMs intracellular APEC clearance concentration [11]: 50^b µM
- cytological profile (confocal, FM4-64 / SYTO-9) (APEC O78 [12]): PG synthesis inhibitors
- MBC (APEC O2-211): 25 µM
- MIC (APEC O2-211): 25 µM
- SMs intracellular APEC clearance concentration [13]: 100^c µM
- MBC (APEC O15): 100 µM
- MIC (APEC O15): 25 µM
- SMs intracellular APEC clearance concentration [14]: 50^b µM
